Assay results: patent publication US12558348B2, “Bioactive phytochemicals” (Phytoquest Limited, priority 2019, dated 2026)
Marks after values point to notes of the source that are not given here.

Key:
[1] = tested on: sialidase in human THP-1 (monocyte-like) cell cultures; experiment: Endogenous (lysosomal) sialidase activity in LPS-stimulated THP-1 cells; assay type: cell-based; details: for RFU / Sialidase activity/mg protein: 2 hrs then 16 hours LPS; for Relative sialidase activity/mg protein: 16 hours LPS, relative to LPS control = 1.00
Procedure: The THP-1 cells were cultured in RPMI media supplemented with mercaptoethanol & glutamine to get 80% confluence in culture flask, then aspirated and centrifuged at 1500 rpm for 5 mins. The cell pellet was then resuspended in 1 ml of RPMI complete media and counted conventionally using a Hemocytometer. The cells (5×106) were incubated with PMA (10 ng/ml) in separate dishes to differentiate THP-1 cells. […] […] Post incubation, the cells were used to determine the sialidase activity.
The THP-1 cells were washed with phosphate-buffered saline (PBS) and resuspended in ice-cold buffer containing 0.25 M sucrose, 1 mM EDTA, and 0.2 mM phenylmethylsulfonyl fluoride. The cell suspension was sonicated on ice for 15 s on a low setting (6% amplitude) (Vibracell™; Sonics and Materials Inc., Newtown, CT) followed by centrifugation at 25,000 g for 15 min at 4° C. The resulting supernatant was used to determine the lysosomal sialidase activity. Protein quantification of the supernatant was performed using the Bio-Rad protein determination kit as described above. For the determination of lysosomal sialidase activity, 200 μg of total protein was mixed with 40 nmol of 4-methylumbelliferyl-α-N-acetyl-D-neuraminic acid (Sigma), the lysosomal sialidase-specific substrate, 10 μmol sodium acetate buffer, pH 4.6, and 200 μg of bovine serum albumin in a total volume of 200 μl. The sialidase reaction was allowed to proceed for 1 h at 37° C. and was terminated by the addition of 0.25 M glycine NaOH, pH 10.4. Released 4-methylumbelliferone was measured fluorometrically (Synergy 2 multimode microplate reader) at an excitation wavelength of 365 nm and emission wavelength of 448 nm.

THP-1 cells = experiment: Viability of THP-1 cells (trypan blue uptake or MTT dye conversion); assay type: cell-based, human
[2] = tested on: sialidase (including NanH from T. forsythia); experiment: Sialidase assay with methylumbelliferyl-N-acetylneuraminic acid; assay type: biochemical
Procedure: Sialidase assays used 2.8 mM and 0.28 mM inhibitor (or water without inhibitor) and 2.5 nM sialidase (including NanH from T. forsythia) incubated in the presence of 0.1 mM methylumbelliferyl-N-acetyineuraminic acid, pH 7.2 in 20 mM sodium phosphate buffer. Reactions were stopped at 30 seconds and 60 seconds via addition of pH 10.5 60 mM sodium carbonate buffer. Release of fluorogenic methylumbelliferone (MU) was quantified by measuring fluorescence emission at 450 nm, excitation 350 nm. Percentage sialidase activity was expressed as the change in fluorescence between 30 seconds and 60 seconds compared to that of a reaction without inhibitor. Reactions were carried out in triplicate.

[3] = tested on: murine microglial cell line BV-2; experiment: Nitrite production by LPS-stimulated BV-2 microglial cells; assay type: cell-based; details: 24 hours
Procedure: idoBR1 was used in cell cultures of murine microglial cell line BV-2 at 0, 20, 40 and 80 μg/ml plus and minus sub-optimal LPS. Production of TNF-α and nitrite was measured after 24 hours.

phosphorylated ERK 42/44 = experiment: Western blot of phosphorylated ERK p42/44 in LPS-stimulated THP-1 cells; assay type: cell-based, human; details: vs LPS = 1.00
Procedure: THP-1 cells were cultured in RPMI media supplemented with mercaptoethanol & glutamine to get 80% confluence in culture flasks, then they were aspirated and centrifuged at 1500 rpm for 5 mins. The cell pellet was then resuspended in 1 ml of RPMI complete media and counted conventionally using a hemocytometer. The cells (5×106) were incubated with PMA (10 ng/ml) in separate dishes to differentiate THP-1 cells. To determine the protein expression p38 & p42/44, THP-1 cells were pre-treated for 1 hr with idoBR1-100 μg/ml & 50 μg/ml and cucumber extract (Q-actin batch no. B17CF001)—200 μg/ml & 100 μg/ml, followed by 2 hr LPS (1 μg/ml) stimulation. Post incubation, the cells were harvested and whole protein was isolated.
Cell pellets were lysed, and the protein concentration was determined using the Bio-Rad protein determination assay (Bio-Rad). Total cell proteins were subjected to 8% polyacrylamide SDS gel electrophoresis followed by transfer onto polyvinylidene difluoride membranes (Thermoscientific). The membranes were probed with either mouse anti-phospho-p38 mAb (Thermoscientific) or mouse anti-phospho-p42/44 mAb (Thermoscientific), followed by horseradish peroxidase-conjugated goat anti-mouse polyclonal antibodies (Thermoscientific). All immunoblots were visualized by ECL (Amersham Biosciences).

In the case of O=C(O)[C@@H]1NC[C@H](O)[C@@H](O)[C@@H]1O [idoBR1, (2R,3R,4R,5S)-3,4,5-trihydroxypiperidine-2-carboxylic acid], the “Sialidase activity/mg of protein” value ([1]; 12.5 μg/mL + LPS, 4 hours) is reported as 91.30, the “Sialidase activity/mg of protein” value ([1]; 12.5 μg/mL + LPS, 8 hours) is reported as 129.95 and the “Sialidase activity/mg of protein” value ([1]; 12.5 μg/mL + LPS, 16 hours) is reported as 186.34. The “Sialidase activity/mg of protein” value ([1]; 12.5 μg/mL + LPS, 24 hours) was 108.47, the RFU ([1]; 12.5 μg/ml) was 1610 RFU and the Sialidase activity/mg protein ([1]; 12.5 μg/ml) was 186.34. The “Relative sialidase activity/mg protein” value ([1]; 12.5 μg/ml) was 0.89, the “Sialidase activity/mg of protein” value ([1]; 25 μg/mL + LPS, 4 hours) was 86.48 and the “Sialidase activity/mg of protein” value ([1]; 25 μg/mL + LPS, 8 hours) was 121.84. The “Sialidase activity/mg of protein” value ([1]; 25 μg/mL + LPS, 16 hours) was 178.24, the “Sialidase activity/mg of protein” value ([1]; 25 μg/mL + LPS, 24 hours) was 103.85 and the RFU ([1]; 25 μg/ml) was 1540 RFU. For the same compound, the Sialidase activity/mg protein ([1]; 25 μg/ml) was 178.24, the “Relative sialidase activity/mg protein” value ([1]; 25 μg/ml) was 0.86 and the “Sialidase activity/mg of protein” value ([1]; 50 μg/mL + LPS, 4 hours) was 79.35. The “Sialidase activity/mg of protein” value ([1]; 50 μg/mL + LPS, 8 hours) was 109.77, the “Sialidase activity/mg of protein” value ([1]; 50 μg/mL + LPS, 16 hours) was 130.21 and the “Sialidase activity/mg of protein” value ([1]; 50 μg/mL + LPS, 24 hours) was 88.83. The RFU ([1]; 50 μg/ml) was 1125 RFU, the Sialidase activity/mg protein ([1]; 50 μg/ml) was 130.21 and the “Relative sialidase activity/mg protein” value ([1]; 50 μg/ml) was 0.63. The “Sialidase activity/mg of protein” value ([1]; 100 μg/mL + LPS, 4 hours) was 72.15, the “Sialidase activity/mg of protein” value ([1]; 100 μg/mL + LPS, 8 hours) was 99.32 and the “Sialidase activity/mg of protein” value ([1]; 100 μg/mL + LPS, 16 hours) was 115.16. The “Sialidase activity/mg of protein” value ([1]; 100 μg/mL + LPS, 24 hours) was 78.66, the RFU ([1]; 100 μg/ml) was 995 RFU and the Sialidase activity/mg protein ([1]; 100 μg/ml) was 115.16. For the same compound, the “Relative sialidase activity/mg protein” value ([1]; 100 μg/ml) was 0.55, the “viability of THP-1 cells” value (THP-1 cells) was “did not significantly alter” and the “inhibition of the sialidase” value ([2]; 0.28 mM inhibitor) was 42%. For the same compound, the “inhibition of the sialidase” value ([2]; 2.8 mM inhibitor) was 36%, the Nitrite production ([3]; 20 μg/ml + LPS) was 11* μM and the Nitrite production ([3]; 40 μg/ml + LPS) was 9** μM. For the same compound, the Nitrite production ([3]; 80 μg/ml + LPS) was 8** μM, the “Relative expression of p42/44” value (phosphorylated ERK 42/44; 50 μg/ml) was 0.80 and the “Relative expression of p42/44” value (phosphorylated ERK 42/44; 100 μg/ml) was 0.76.
